Results on two compounds are retold here after US20190249218A1, “Method, Medium and Kit for Detecting Multiple Aminoglycoside Resistance Including 16S rRNA Methylase Mediated Resistance in Gram-Negative Bacteria” (priority 2016, published 2019).

Converted amounts (≈) assume the structure as drawn. Where two headings read alike, the source gives them in different places. Bounds are passed on as bounds.

For orientation: MIC means the smallest concentration in the dilution series that meets the test's criterion for growth inhibition.

One test concerns P. aeruginosa. Description: MIC by broth microdilution. Type of test: cell-based, Pseudomonas aeruginosa. As to the method: (§1) MICs of amikacin and gentamicin were determined using the broth microdilution method in cation-adjusted Mueller-Hinton broth, as recommended by the Clinical Laboratory Standard Institute (CLSI) guidelines (8). Amikacin and gentamicin sulfate (Fluorochem, Dertbyshire, UK) were tested over a range of dilutions from 0.25 to 256 μg/ml. A final inoculum of 5.10^5 CFU/ml of each strain was distributed in the 96 wells tray (Sarstedt, Ntimbrecht, Germany). All experiments were repeated in triplicate and E. coli ATCC 25922 was used as quality control. According to the CLSI breakpoints (9), Enterobacteriaceae isolates with gentamicin MICs≤4 and amikacin MICs≤16 mg/L were categorized as susceptible, while those with gentamicin MICs≥16 and amikacin MICs≥64 mg/L were categorized as resistant.
(§2) MICs of amikacin and gentamicin were determined as described above in Example 1.

The subject of a further test is P. mirabilis. Briefly: MIC by broth microdilution. It counts as cell-based, Proteus mirabilis. As for the experimental part: as §1, §2
[1] abbreviates: isolate R2260, P. mirabilis, AG susceptible.

For the compound `NCC[C@H](O)C(=O)N[C@@H]1C[C@H](N)[C@@H](O[C@H]2O[C@H](CN)[C@@H](O)[C@H](O)[C@H]2O)[C@H](O)[C@H]1O[C@H]1O[C@H](CO)[C@@H](O)[C@H](N)[C@H]1O` [Amikacin], the MIC in the test with P. aeruginosa (Pseudomonas aeruginosa, strain 3655, P. aeruginosa, APH(3′)-I + ANT(2″), read-out: MIC) is 1 µg/mL; in the test on P. aeruginosa (Pseudomonas aeruginosa, strain 3658, P. aeruginosa, APH(3′)-I + ANT(4′)-II, read-out: MIC), above 128 µg/mL; in the test with P. aeruginosa (Pseudomonas aeruginosa, strain 28233, P. aeruginosa, APH(3′)-I + AAC(3)-I, read-out: MIC), 4 µg/mL; in the test with P. aeruginosa (Pseudomonas aeruginosa, strain R191, P. aeruginosa, susceptible, read-out: MIC) it was 8 µg/mL (≈ 13.7 µM); with P. mirabilis (Proteus mirabilis, isolate R2260, P. mirabilis, AG susceptible, read-out: MIC) it was 4 µg/mL (≈ 6.83 µM); with P. mirabilis (Proteus mirabilis, strain R263, P. mirabilis, armA, read-out: MIC) it was above 512 µg/mL. Moreover, the MIC with P. mirabilis (Proteus mirabilis, strain R2260, P. mirabilis, susceptible, read-out: MIC) was 4 µg/mL (≈ 6.83 µM). Besides, in the test with P. mirabilis (setting [1]), the “Amikacin Phenotype” value was “S (amikacin MICs≤16 mg/L were categorized as susceptible)”.
Regarding Gentamicin, the MIC in the test with P. aeruginosa (strain 3655, P. aeruginosa, APH(3′)-I + ANT(2″)) was determined as 4 µg/mL; in the test with P. aeruginosa (strain 3656, P. aeruginosa, APH(3′)-I + ANT(4′)-II), 8 µg/mL; in the test on P. aeruginosa (strain 3658, P. aeruginosa, APH(3′)-I + ANT(4′)-II) it was 4 µg/mL; with P. aeruginosa (strain 28233, P. aeruginosa, APH(3′)-I + AAC(3)-I), 1 µg/mL; against P. aeruginosa (strain R191, P. aeruginosa, susceptible) it was 2 µg/mL; against P. mirabilis (setting [1]) it was 4 µg/mL. The MIC in the test on P. mirabilis (strain R263, P. mirabilis, armA) was above 256 µg/mL; with P. mirabilis (strain R2260, P. mirabilis, susceptible) it was 4 µg/mL. The “Gentamicin Phenotype” value in the test on P. mirabilis (setting [1]) is on record as “S (gentamicin MICs≤4)”.
